Data as given in patent US20060069132A1, “Azolecarboxamide herbicides” (priority 2004, published 2006).

How the values were obtained:
[1] = tested on: ducksalad; test: Test B flooded paddy test; type: in vivo, Heteranthera limosa; conditions: 1000 g ai/ha, scale 0 to 100 (0 no effect, 100 complete control)
How it was run: (§1)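 Paddy species grown to the 2-leaf stage under flooding; blackgrass sprayed postemergence at 2–18 cm (1- to 4-leaf stage). Plants kept in a greenhouse for 13 to 15 days, then visually rated against controls on 0 (no effect) to 100 (complete control).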

[2] = tested on: blackgrass; test: Test B postemergence herbicide test; type: in vivo, Alopecurus myosuroides
How it was run: as §1

[3] = tested on: velvetleaf; test: Test A pre-/postemergence herbicide test; type: in vivo, Abutilon theophrasti
How it was run: (§2)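 Pre: seeded sandy loam, directed soil spray, compound in non-phytotoxic solvent + surfactant. Post: 1–2-leaf plants (2–10 cm), sprayed to runoff. Greenhouse ~10 d; visual injury vs untreated, 0–100 scale.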

[4] = tested on: barnyardgrass; test: Test B flooded paddy test; type: in vivo, Echinochloa crus-galli; conditions: 1000 g ai/ha, scale 0 to 100 (0 no effect, 100 complete control)
How it was run: as §1

[5] = tested on: morningglory; test: Test B pre-/postemergence herbicide test; type: in vivo, Ipomoea coccinea
How it was run: (§3)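 Test chemicals in a non-phytotoxic solvent mixture with surfactant were applied preemergence to seeded species and postemergence to plants 2-18 cm tall (1- to 4-leaf stage); rice and barnyardgrass were also tested in a flooded paddy at the 2-leaf stage. Visual rating versus controls after 13-15 days in greenhouse, scale 0 (no effect) to 100 (complete control).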

[6] = tested on: barnyardgrass; test: Test A pre-/postemergence herbicide test; type: in vivo, Echinochloa crus-galli
How it was run: as §2

[7] = tested on: corn; test: Test B pre-/postemergence herbicide test; type: in vivo, Zea mays
How it was run: (§4)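 Evaluation is visual, comparing treated with control plants on a scale where 0 means no effect and 100 means full control. Treatments were preemergence, or postemergence on seedlings 2–18 cm tall, and held 13–15 days in the greenhouse.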

[8] = tested on: morningglory; test: Test A pre-/postemergence herbicide test; type: in vivo, Ipomoea spp.
How it was run: as §2

[9] = tested on: small flower umbrella sedge; test: Test B flooded paddy test; type: in vivo, Cyperus difformis; conditions: 1000 g ai/ha, scale 0 to 100 (0 no effect, 100 complete control)
How it was run: as §1

[10] = tested on: Surinam grass; test: Test B pre-/postemergence herbicide test; type: in vivo, Urochloa decumbens
How it was run: as §4

[11] = tested on: wild oat; test: Test B postemergence herbicide test; type: in vivo, Avena fatua
How it was run: (§5)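 Greenhouse test; postemergence application to plants at 1–4 leaves (2–18 cm); paddy species at 2 leaves; evaluated visually vs controls at 13–15 days; scale 0–100 (100 = complete control).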

[12] = tested on: lambsquarters; test: Test B pre-/postemergence herbicide test; type: in vivo, Chenopodium album
How it was run: as §4

[13] = tested on: cocklebur; test: Test B pre-/postemergence herbicide test; type: in vivo, Xanthium strumarium
How it was run: as §3

[14] = tested on: large crabgrass; test: Test A pre-/postemergence herbicide test; type: in vivo, Digitaria sanguinalis
How it was run: as §2

[15] = tested on: redroot pigweed; test: Test A pre-/postemergence herbicide test; type: in vivo, Amaranthus retroflexus
How it was run: as §2

[16] = tested on: giant foxtail; test: Test B pre-/postemergence herbicide test; type: in vivo, Setaria faberi
How it was run: as §4

[17] = tested on: wheat; test: Test B postemergence herbicide test; type: in vivo, Triticum aestivum; set-up: key to Wheat plant response rating: 0 = no effect, 100 = complete control
How it was run: as §5

[18] = tested on: large crabgrass; test: Test B pre-/postemergence herbicide test; type: in vivo, Digitaria sanguinalis
How it was run: as §4

[19] = tested on: barnyardgrass; test: Test B pre-/postemergence herbicide test; type: in vivo, Echinochloa crus-galli
How it was run: as §3

[20] = tested on: velvetleaf; test: Test B pre-/postemergence herbicide test; type: in vivo, Abutilon theophrasti
How it was run: as §4

[21] = tested on: rice; test: Test B flooded paddy test; type: in vivo, Oryza sativa; conditions: 1000 g ai/ha, scale 0 to 100 (0 no effect, 100 complete control)
How it was run: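 Each value is a visual 0–100 response rating taken against controls 13 to 15 days after treatment in the greenhouse. Plants received formulated chemical postemergence at the 1- to 4-leaf stage or, in flooded paddy, at the 2-leaf stage.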

[22] = tested on: giant foxtail; test: Test A pre-/postemergence herbicide test; type: in vivo, Setaria faberi
How it was run: as §2

[23] = tested on: pigweed; test: Test B pre-/postemergence herbicide test; type: in vivo, Amaranthus retroflexus
How it was run: as §4

[24] = postemergence, 125 g ai/ha; visual rating, scale 0 (no effect) to 100 (complete control)
[25] = postemergence, 500 g ai/ha; visual rating, scale 0 (no effect) to 100 (complete control)
[26] = Postemergence, 500 g ai/ha, 0 to 100 scale, 0 no effect, 100 complete control
[27] = Postemergence, 2000 g ai/ha, 0 to 100 scale, 0 no effect, 100 complete control
[28] = Preemergence, 2000 g ai/ha, visual rating, 0 to 100 scale (0 no effect, 100 complete control)
[29] = preemergence, 500 g ai/ha, visual injury, 0 to 100 scale (0 no effect, 100 complete control)
[30] = 125 g ai/ha; 0 = no effect, 100 = complete control; preemergence
[31] = 500 g ai/ha; visual rating 0-100, 0 no effect, 100 complete control; preemergence
[32] = 125 g ai/ha; visual rating, scale 0 (no effect) to 100 (complete control); postemergence
[33] = postemergence, 500 g ai/ha; scale 0 to 100, 0 is no effect, 100 is complete control
[34] = Postemergence, 125 g ai/ha, 0 to 100 scale, 0 no effect, 100 complete control
[35] = preemergence, 125 g ai/ha, visual injury, 0 to 100 scale (0 no effect, 100 complete control)
[36] = 500 g ai/ha; visual rating, 0 = no effect, 100 = complete control; preemergence

CC(=O)c1cccc(NC(=O)c2sc(C(C)(C)C)nc2C)c1 [Compound 196]
Ducksalad plant response rating ([1]; visual rating, 13 to 15 days): 30
Blackgrass plant response rating [2, 24]: 0
Blackgrass plant response rating [2, 25]: 0
Velvetleaf plant response rating [3, 26]: 0
Plant response rating, Velvetleaf [3, 27]: 0
Velvetleaf plant response rating [3, 28]: 0
Velvetleaf plant response rating [3, 29]: 0
Barnyardgrass plant response rating ([4]; visual rating, 13 to 15 days): 20
Morningglory plant response rating (0 to 100 scale) [5, 30]: 0
Plant response rating, Morningglory [5, 31]: 0
Morningglory plant response rating [5, 24]: 0
Morningglory plant response rating [5, 25]: 0
Barnyardgrass plant response rating [6, 26]: 0
Plant response rating, Barnyardgrass [6, 27]: 30
Barnyardgrass plant response rating [6, 28]: 55
Barnyardgrass plant response rating [6, 29]: 15
Corn plant response rating (0 to 100 scale) [7, 30]: 0
Plant response rating, Corn [7, 31]: 0
Corn plant response rating [7, 24]: 0
Corn plant response rating [7, 25]: 10
Morningglory plant response rating [8, 26]: 5
Plant response rating, Morningglory [8, 27]: 0
Morningglory plant response rating [8, 28]: 10
Morningglory plant response rating [8, 29]: 0
Sedge, Umbrella plant response rating ([9]; visual rating, 13 to 15 days): 30
Surinam Grass plant response rating (0 to 100 scale) [10, 30]: 0
Plant response rating, Surinam Grass [10, 31]: 0
Surinam Grass plant response rating [10, 24]: 0
Surinam Grass plant response rating [10, 25]: 40
Oat, Wild plant response rating [11, 24]: 0
Oat, Wild plant response rating [11, 25]: 0
Lambsquarters plant response rating (0 to 100 scale) [12, 30]: 0
Plant response rating, Lambsquarters [12, 31]: 0
Lambsquarters plant response rating [12, 24]: 0
Lambsquarters plant response rating [12, 25]: 30
Cocklebur plant response rating (0 to 100 scale) [13, 30]: 0
Plant response rating, Cocklebur [13, 31]: 0
Cocklebur plant response rating [13, 24]: 0
Cocklebur plant response rating [13, 25]: 20
Crabgrass, Large plant response rating [14, 26]: 0
Plant response rating, Crabgrass, Large [14, 27]: 0
Crabgrass, Large plant response rating [14, 28]: 50
Crabgrass, Large plant response rating [14, 29]: 25
Pigweed plant response rating [15, 26]: 0
Plant response rating, Pigweed [15, 27]: 0
Pigweed plant response rating [15, 28]: 15
Pigweed plant response rating [15, 29]: 0
Foxtail, Giant plant response rating (0 to 100 scale) [16, 30]: 0
Plant response rating, Foxtail, Giant [16, 31]: 0
Foxtail, Giant plant response rating [16, 24]: 0
Foxtail, Giant plant response rating [16, 25]: 0
Wheat plant response rating [17, 24]: 0
Wheat plant response rating [17, 25]: 0
Crabgrass, Large plant response rating (0 to 100 scale) [18, 30]: 0
Plant response rating, Crabgrass, Large [18, 31]: 100
Crabgrass, Large plant response rating [18, 24]: 30
Crabgrass, Large plant response rating [18, 25]: 30
Barnyardgrass plant response rating (0 to 100 scale) [19, 30]: 0
Plant response rating, Barnyardgrass [19, 31]: 40
Barnyardgrass plant response rating [19, 24]: 0
Barnyardgrass plant response rating [19, 25]: 30
Velvetleaf plant response rating (0 to 100 scale) [20, 30]: 0
Plant response rating, Velvetleaf [20, 31]: 20
Velvetleaf plant response rating [20, 24]: 0
Velvetleaf plant response rating [20, 25]: 0
Rice plant response rating ([21]; visual rating, 13 to 15 days): 0
Foxtail, Giant plant response rating [22, 26]: 0
Plant response rating, Foxtail, Giant [22, 27]: 0
Foxtail, Giant plant response rating [22, 28]: 20
Foxtail, Giant plant response rating [22, 29]: 0
Pigweed plant response rating (0 to 100 scale) [23, 30]: 0
Plant response rating, Pigweed [23, 31]: 0
Pigweed plant response rating [23, 24]: 10
Pigweed plant response rating [23, 25]: 30

CC(=NO)c1cccc(NC(=O)c2cc(C(C)(C)C)n[nH]2)c1 [Compound 311]
Ducksalad plant response rating [1]: 60
Blackgrass plant response rating [2, 32]: 0
Blackgrass plant response rating [2, 33]: 0
Velvetleaf plant response rating [3, 34]: 0
Velvetleaf plant response rating [3, 26]: 10
Velvetleaf plant response rating [3, 35]: 0
Velvetleaf plant response rating [3, 29]: 0
Barnyardgrass plant response rating [4]: 50
Morningglory plant response rating (0 to 100 scale) [5, 30]: 0
Morningglory plant response rating [5, 32]: 0
Plant response rating, Morningglory [5, 36]: 0
Morningglory plant response rating [5, 33]: 0
Barnyardgrass plant response rating [6, 34]: 0
Barnyardgrass plant response rating [6, 26]: 10
Barnyardgrass plant response rating [6, 35]: 0
Barnyardgrass plant response rating [6, 29]: 0
Corn plant response rating (0 to 100 scale) [7, 30]: 0
Corn plant response rating [7, 32]: 0
Plant response rating, Corn [7, 36]: 0
Corn plant response rating [7, 33]: 0
Morningglory plant response rating [8, 34]: 0
Morningglory plant response rating [8, 26]: 0
Morningglory plant response rating [8, 35]: 0
Morningglory plant response rating [8, 29]: 0
Sedge, Umbrella plant response rating [9]: 30
Surinam Grass plant response rating (0 to 100 scale) [10, 30]: 0
Surinam Grass plant response rating [10, 32]: 0
Plant response rating, Surinam Grass [10, 36]: 0
Surinam Grass plant response rating [10, 33]: 0
Oat, Wild plant response rating [11, 32]: 0
Oat, Wild plant response rating [11, 33]: 0
Lambsquarters plant response rating (0 to 100 scale) [12, 30]: 0
Lambsquarters plant response rating [12, 32]: 0
Plant response rating, Lambsquarters [12, 36]: 0
Lambsquarters plant response rating [12, 33]: 0
Cocklebur plant response rating (0 to 100 scale) [13, 30]: 0
Cocklebur plant response rating [13, 32]: 0
Plant response rating, Cocklebur [13, 36]: 0
Cocklebur plant response rating [13, 33]: 0
Crabgrass, Large plant response rating [14, 34]: 0
Crabgrass, Large plant response rating [14, 26]: 10
Crabgrass, Large plant response rating [14, 35]: 0
Crabgrass, Large plant response rating [14, 29]: 0
Pigweed plant response rating [15, 34]: 0
Pigweed plant response rating [15, 26]: 0
Pigweed plant response rating [15, 35]: 0
Pigweed plant response rating [15, 29]: 0
Foxtail, Giant plant response rating (0 to 100 scale) [16, 30]: 0
Foxtail, Giant plant response rating [16, 32]: 0
Plant response rating, Foxtail, Giant [16, 36]: 0
Foxtail, Giant plant response rating [16, 33]: 0
Wheat plant response rating [17, 32]: 0
Wheat plant response rating [17, 33]: 0
Crabgrass, Large plant response rating (0 to 100 scale) [18, 30]: 0
Crabgrass, Large plant response rating [18, 32]: 0
Plant response rating, Crabgrass, Large [18, 36]: 0
Crabgrass, Large plant response rating [18, 33]: 0
Barnyardgrass plant response rating (0 to 100 scale) [19, 30]: 0
Barnyardgrass plant response rating [19, 32]: 0
Plant response rating, Barnyardgrass [19, 36]: 0
Barnyardgrass plant response rating [19, 33]: 0
Velvetleaf plant response rating [20, 32]: 0
Plant response rating, Velvetleaf [20, 36]: 0
Velvetleaf plant response rating [20, 33]: 0
Rice plant response rating [21]: 60
Foxtail, Giant plant response rating [22, 34]: 0
Foxtail, Giant plant response rating [22, 26]: 0
Foxtail, Giant plant response rating [22, 35]: 0
Foxtail, Giant plant response rating [22, 29]: 0
Pigweed plant response rating (0 to 100 scale) [23, 30]: 0
Pigweed plant response rating [23, 32]: 0
Plant response rating, Pigweed [23, 36]: 0
Pigweed plant response rating [23, 33]: 0
